The series can be described thus: Translational diffusion NMR (DOSY). The settings on record: 500 MHz, 10 °C, 1.8 mM peptide, 100 mM sodium phosphate pH 7.0, 100% D2O, 1% dioxane as reference. It is filed as physicochemical.

This is an account of results in publication PMC9739371, “Deciphering the Binding of the Nuclear Localization Sequence of Myc Protein to the Nuclear Carrier Importin α3” (International Journal of Molecular Sciences, 2022).

Method: The NMR spectra were acquired at 10 °C on a Bruker Avance 500 MHz spectrometer (Bruker GmbH, Karlsruhe, Germany), equipped with a triple resonance probe and z-pulse field gradients. Spectra were processed with Bruker TopSpin 2.1 (Bruker GmbH, Karlsruhe, Germany). […] Spectra were calibrated with 3-(trimethylsilyl) propionic acid-2,2,3,3-^2H4-sodium salt (TSP), by considering pH-dependent changes of its chemical shifts; the probe temperature was calibrated with pure methanol [49].
Measurements of the translational self-diffusion coefficient, D, were performed with the pulsed-gradient spin-echo sequence in the presence of 100% D2O. […] The gradient strength was varied in sixteen linear steps between 2% to 95% of the total power of the gradient coil. Gradient strength was calibrated by using the value of D for the residual proton water signal in a sample containing 100% D2O, in a 5-mm tube [51]. The length of the gradient was 2.5 ms; the time between two pulse gradients in the pulse sequence was 250 ms; and the recovery delay between the bipolar gradients was 100 µs. […] A final concentration of 1% of dioxane, which was assumed to have a hydrodynamic radius Rh = 2.12 Å [51], was added to the solution.

Turning to `C1COCCO1` [dioxane], the “translational diffusion coefficient D” value was 5.3 ± 0.6 × 10^−6 cm^2 s^−1.
